Reference: patent publication US12686676B2, “Compound, endothelin-A receptor antagonist, and pharmaceutical composition” (Alchemedicine, Inc., priority 2021, dated 2026)

Assays:
[1] = target: T1, human endothelin A receptor (Homo sapiens, UniProt P25101); test: Endothelin A receptor inhibitory effect (aequorin light emission, endothelin at EC80); type: cell-based; conditions: for IC50: CHO-K1-mt aequorin cells expressing human endothelin A receptor, endothelin at EC80, read-out: ETA receptor inhibitory effect; for ETA selectivity (ETB/ETA): ETB IC50 value/ETA IC50 value
T1 construct: expressed in transfected cells; host or cells: CHO-K1-mt aequorin cells
T1 sequence (P25101 21-427): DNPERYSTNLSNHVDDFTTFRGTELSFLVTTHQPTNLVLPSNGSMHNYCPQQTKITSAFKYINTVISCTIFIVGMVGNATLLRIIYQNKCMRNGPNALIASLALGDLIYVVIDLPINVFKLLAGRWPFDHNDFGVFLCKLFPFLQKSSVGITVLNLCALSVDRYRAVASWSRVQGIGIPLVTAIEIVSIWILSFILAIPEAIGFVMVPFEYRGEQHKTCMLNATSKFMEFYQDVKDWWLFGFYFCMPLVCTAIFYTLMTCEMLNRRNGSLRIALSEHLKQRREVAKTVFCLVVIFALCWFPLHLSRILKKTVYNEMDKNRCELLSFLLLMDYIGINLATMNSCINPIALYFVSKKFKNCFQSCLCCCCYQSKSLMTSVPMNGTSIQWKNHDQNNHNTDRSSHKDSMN
Method: The inhibitory effect on an endothelin A receptor was studied by the following method.
(§1) CHO-K1-mt aequorin cells forced to express a human endothelin A receptor (Accession Number NP_001948.1) were cultured in an antibiotic-free medium for 18 hours, then treated with PBS-EDTA (5 mM EDTA), centrifuged (2 min, 405×g, room temperature), and then suspended in an assay buffer (DMEM/HAM's F12 with HEPES+0.1% BSA protease free).
(§2) 1×10^6 cells/mL of the cells were incubated at room temperature for 4 hours in the presence of coelenterazine h (Molecular Probes, Inc.) (final concentration: 5 µM). Agonistic reaction based on endothelin was confirmed to determine an endothelin concentration corresponding to EC80.
(§3) Subsequently, 50 µL (10000 cells/well) of the cell suspension treated with coelenterazine h and 50 µL of an assay buffer containing a test substance (final concentration: 0.5% in DMSO) were added to each well of a 96-well plate. 15 minutes later, endothelin was added such that its final concentration was an EC80 concentration. Receptor activity was measured as the quantity of light emission in FDSS6000 (Hamamatsu Photonics K.K.). IC50 values were calculated using XLfit (ID Business Solutions Ltd. (IDBS)).

[2] = target: T2, human endothelin B receptor (Homo sapiens, UniProt P24530); test: Endothelin B receptor inhibitory effect (aequorin light emission, endothelin at EC80); type: cell-based; conditions: CHO-K1-mt aequorin cells expressing human endothelin B receptor; endothelin at EC80; read-out: ETB receptor inhibitory effect
T2 construct: expressed in transfected cells; host or cells: CHO-K1-mt aequorin cells
T2 sequence (P24530 27-442): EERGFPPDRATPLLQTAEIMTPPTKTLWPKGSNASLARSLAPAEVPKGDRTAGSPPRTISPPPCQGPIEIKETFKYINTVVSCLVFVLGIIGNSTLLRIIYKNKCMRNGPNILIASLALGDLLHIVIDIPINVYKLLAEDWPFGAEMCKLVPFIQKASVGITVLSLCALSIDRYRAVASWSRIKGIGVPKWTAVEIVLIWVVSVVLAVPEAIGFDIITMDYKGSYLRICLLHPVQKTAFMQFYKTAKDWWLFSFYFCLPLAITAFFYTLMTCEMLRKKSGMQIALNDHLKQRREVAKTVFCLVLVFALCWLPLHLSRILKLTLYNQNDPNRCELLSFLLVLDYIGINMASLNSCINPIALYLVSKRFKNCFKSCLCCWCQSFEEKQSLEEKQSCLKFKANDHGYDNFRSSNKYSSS
Method: The inhibitory effect on an endothelin B receptor was studied by the following method.
as §1, with “endothelin B” for “endothelin A”, “Number NP_000106.1)” for “Number NP_001948.1)”
as §2
as §3, with “K.K.).” for “K.K.). IC50 values were calculated using XLfit (ID Business Solutions Ltd. (IDBS)).”

CYP2C9 = target: T3, CYP2C9 (Homo sapiens, UniProt P11712); test: CYP2C9 inhibitory effect (liver microsome fraction, diclofenac substrate); type: in vitro ADME; conditions: liver microsome fraction 0.5 mg/mL, diclofenac 2.5 μM
T3 construct: A frozen liver microsome fraction was thawed on ice; from tissue; host or cells: liver microsome fraction
T3 sequence (P11712 whole entry): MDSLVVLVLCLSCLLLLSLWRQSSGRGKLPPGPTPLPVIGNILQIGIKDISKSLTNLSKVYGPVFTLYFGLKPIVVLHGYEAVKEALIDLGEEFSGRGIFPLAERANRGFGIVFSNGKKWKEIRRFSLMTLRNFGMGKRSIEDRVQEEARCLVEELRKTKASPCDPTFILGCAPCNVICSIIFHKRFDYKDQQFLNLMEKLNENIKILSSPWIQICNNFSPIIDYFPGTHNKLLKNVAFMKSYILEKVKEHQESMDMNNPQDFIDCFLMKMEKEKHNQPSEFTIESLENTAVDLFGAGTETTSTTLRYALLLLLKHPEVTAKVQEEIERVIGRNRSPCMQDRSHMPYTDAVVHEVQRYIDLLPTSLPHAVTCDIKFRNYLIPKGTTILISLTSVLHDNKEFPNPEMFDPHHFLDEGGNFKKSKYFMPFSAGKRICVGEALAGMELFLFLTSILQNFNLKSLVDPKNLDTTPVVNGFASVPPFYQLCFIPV
Method: The inhibitory effect on CYP2C9 was evaluated by the following method. • (1) A frozen liver microsome fraction was thawed on ice and diluted with a potassium phosphate buffer (PPB) to a final concentration of 0.5 mg/mL. • (2) A substrate for evaluation (diclofenac: D6899 from Sigma-Aldrich Co. LLC) was added thereto such that its final concentration was 2.5 μM. • (3) The mixture was slowly mixed and incubated at 37±1° C. for 5 minutes to prepare a reaction solution. • (4) 801 μL of the reaction solution was dispensed to each tube, and an evaluation compound serially diluted with 0.9 μL of DMSO was added thereto such that its final concentration was 9.1 to 20000 nM (⅓ dilutions with 8 concentrations). In this context, 0.9 μL of DMSO was added to a negative control group, and 0.9 μL of sulfaphenazole (S0758 from Sigma-Aldrich Co. LLC) adjusted to a final concentration of 1 μM with DMSO was added to a positive control group. • (5) After mixing, a 270 μL aliquot was transferred to each of two fresh tubes and incubated in a shaking water bath at 37±1° C. for 5 minutes. • (6) Reaction was started by the addition of 30 μL of 10 mM NADPH, and the tubes were incubated at 37° C.±1° C. for 10 minutes. • (7) The tubes were taken out of the shaking water bath, and the reaction was terminated by the addition of 300 μL of a reaction stop solution. After mixing, the tubes were centrifuged at 1021×g at 4° C. for 20 minutes. • (8) The amount of the substrate for evaluation metabolized was determined by LC-MS/MS to calculate the rate of inhibition at each concentration of the evaluation compound. • (9) IC50 values were calculated using GraphPad Prism5. A sample having an IC50 value of 1 μM or lower was given “++”; a sample having an IC50 value in the range of higher than 1 μM and 10 μM or lower was given “+”; and a sample having an IC50 value of higher than 10 μM was given “−”.

ETA receptor = target: T4, ETA receptor (Homo sapiens, UniProt P25101); conditions: cited from earlier work
T4 sequence (P25101 21-427): T1 sequence (P25101 21-427)

[3] = pulmonary hypertension associated with connective tissue disease; cited from earlier work
[4] = in vivo; cited from earlier work
[5] = in vivo; cited from earlier work; remark: listed apart in the source

| IC50 [1] [nM] | IC50 [2] [nM] | IC50 (CYP2C9) [nM] | Structure (SMILES) | ETA selectivity (ETB/ETA) [1] | Selective inhibition of ETA receptor in contrast to ETB receptor (ETA receptor) | Drug efficacy in clinical trials [3] | Effect on endothelin concentrations in blood [4] | Peripheral edema [5] |
| --- | --- | --- | --- | --- | --- | --- | --- | --- |
| 1 to 10 | > 5000 | ≤ 1000 | Cc1cc2c(cc1CC(=O)c1sccc1S(=O)(=O)Nc1onc(C)c1Cl)OCO2 [Comparative Example 1, sitaxentan, reference compound] | ++ (ETB IC50 value/ETA IC50 value of higher than 5000) | selectively inhibit the ETA receptor | significant drug efficacy | not increase endothelin concentrations in blood | not cause peripheral edema |
| ≤ 1 | > 5000 | ≤ 1000 | Cc1cc2c(cc1CC(=O)c1sccc1S(=O)(=O)Nc1onc(C)c1Cl)COC2 [Comparative Example 2, reference compound] | ++ (ETB IC50 value/ETA IC50 value of higher than 5000) |  |  |  |  |
| ≤ 1 | > 5000 |  | Cc1cc2c(cc1C#Cc1ncccc1S(=O)(=O)Nc1noc(C)c1C)C(C)OC2 (centres unmarked) [Example 2, 2-((3,6-Dimethyl-1,3-dihydroisobenzofuran-5-yl)ethynyl)-N-(4,5-dimethylisoxazol-3-yl)pyridine-3-sulfonamide] | ++ (ETB IC50 value/ETA IC50 value of higher than 5000) |  |  |  |  |
| 1 to 10 | > 5000 |  | Cc1cc2c(cc1C#Cc1ncccc1S(=O)(=O)Nc1noc(C)c1C)COC2C (centres unmarked) [Example 11, 2-((1,6-Dimethyl-1,3-dihydroisobenzofuran-5-yl)ethynyl)-N-(4,5-dimethylisoxazol-3-yl)pyridine-3-sulfonamide] |  |  |  |  |  |
